# Patent publication US5011828A, “Immunostimulating guanine derivatives, compositions and methods” (priority 1988, dated 1991)
# Legend:
# physchem = format: physicochemical, human; conditions: for solubility at 18 h: human, urine
# Source text: Solubilities in urine could be expected to be lower than those for water due to the relatively higher salt content in urine than is found in water.
# Each sample was filtered through a 5 micron pore-sized filter, diluted as necessary with the HPLC mobile phase, and then quantified by HPLC.
# [1] = tested on: CBA/CaJ thymocytes (irradiated BDF1 splenocyte stimulators); assay: T cell proliferation in mixed leukocyte cultures, CBA/CaJ thymocytes; format: cell-based, mouse; conditions: Study 4, responder +, stimulator +
# Source text: A third and fourth study utilized thymocytes from CBA/CaJ mice as the stimulated (responder) cells, and irradiated BDFl mouse spleen cells as the stimulator cells. Two guanosine derivatives of the present invention, 7a8MGuo and 7a8oGuo, were used for these studies, with 8MGuo serving as positive control for one of the studies.
# However, in the presence of interleukin-2 (IL-2), those cells develop responsiveness to allogeneic stimulation. The present studies utilizing thymocytes were therefore carried out in the presence of a co-stimulating amount of IL-2.
# ^1 Plus signs (+) are utilized to indicate the presence of the
# ^3 Allogeneic cells used to costimulate proliferation, after exposure
# T Helper Cell Activation. 1.5×10^5 viable spleen cells from SJL mice or CBA/CaJ mouse thymocytes were cultured with or without an equal number of irradiated (2500 rads) spleen cells from CBA/CaJ or BDFl mice respectively, in 0.2 ml of culture medium in the presence of incremental concentrations of the exemplary 7,8-disubstituted guanine derivatives. The lymphocyte culture medium utilized was that described before, and was further supplemented with 2-mercaptoethanol to a final concentration of 50 uM. Thymocyte cultures also contained 10 percent (v/v) of a concanavalin A-conditioned rat spleen cell medium sold under the name Rat T Cell Monoclone by Collaborative Research. Following 90 hours of culture, one microCurie [^3 H]TdR per culture was admixed, and the resulting culture was maintained for a further six hour time period.
# The cultures were harvested with a Brandel cell harvester (M24V, Biological Research and Development Laboratories, Rockville, Md.) onto glass fiber filter disks. Filter disks were transferred to plastic scintillation vials, covered with liquid scintillation cocktail, and counted in a Beckman LS5700 liquid scintillation counter.
# [2] = tested on: human peripheral blood lymphocytes (sheep red blood cells as antigen); assay: Antigen-specific adjuvanticity: direct anti-SRBC plaque forming cells, human system; format: cell-based; conditions: for Average 1 Log Plaque Values: Table 9, human, * = single study
# Description: ^1 Studies were carried in a manner similar to those of Table 1,
# except that a human lymphocyte preparation was used.
# The results shown in Table 7, below, were obtained similarly to those discussed above, but using human lymphocytes. Some of those studies utilized lymphocytes from more than one individual, and are therefore reported with multiple entries.
# Human peripheral blood lymphocytes (PBL) were prepared from normal heparinized venous blood by Ficoll-diatrizoate density gradient centrifugation. PBL were depleted of suppressor T cells bearing the histamine type 2 receptor by adhering them to the surfaces of histamine-rabbit serum albumin-coated plastic petri dishes (Cell-ect No. 2 kit; Seragen, Boston, Mass.) and by recovering the nonadherent cells by panning as described by Wysocki and Sato, Proc. Natl. Acad. Sci. USA, 75:2844 (1978) and modified by Cavagnaro and Osband, Biotechniques, January/February:30 (1983).
# The tissue culture medium employed in these studies for human lymphocytes was prepared as follows: One hundred milliliters (ml) contained 87.9 ml RPMI 1640 (Flow Laboratories, Rockville, Md.), 0.1 ml 100×glutamine,1.0 ml of 1.0 M HEPES buffer (Microbilogical Associates, Betheseda, Md.), 1.0 ml of water containing 10^4 U of penicillin G and 10^4 micrograms of streptomycin, and 10 ml of fresh autologous heat-inactivatedplasma. For evaluation of the primary humoral immune response to SRBC, lymphoid cells prepared as above were cultured at a density of 2×10^6 /ml in a volume of 1.0 ml containing 5×10^6 SRBC as antigen (Colorado Serum Co., Denver, Colo.) together with IL-2 (a partially purified preparation of human IL-2 that was free of interferon-gamma activity was obtained from Electro-Nucleonics, Inc., Silver Spring, Md.) and the guanine nucleoside derivative.
# (§1) Assay of plaque forming cells (PFC). PFC secreting antibodies against SRBC were evaluated after 4 or 5 days of culture using a modification of the hemolytic plaque assay of Jerne and Nordin, Science, 140:405 (1963). The cells were brought up in complete medium before plaquing; they were plaqued in standard low Mr agarose (Bio-Rad Laboratories, Richmond Calif.), and were incubated in SRBC-absorbed guinea pig complement for one hour after a 1.5 hour incubation without complement.
# [3] = tested on: murine lymphocytes (sheep red blood cells as antigen); assay: Antigen-specific adjuvanticity: direct anti-SRBC plaque forming cells, murine system; format: cell-based, mouse; conditions: for Peak Direct anti-SRBC PFC/Culture: Table 5, murine system, at peak concentration; for Direct Anti-SRBC PFC/Culture: Table 8, 1 × 10^-5 M; for Average 1 Log Plaque Values: Table 9, murine, * = single study
# Source text: ^1 Adjuvanticities against sheep red blood cells [SRBC] measured in
# direct plaqueforming cells per culture of lymphocytes from the mouse
# strains shown. Details of the procedure are provided in the Materials and
# Methods Section. Standard errors from the enumerated mean values are show
# A large number of comparisons of adjuvanticity using human and murine lymphocytes as the source of leukocytes have been carried out using compounds of the present invention, as well as with new compounds excluded from the present invention. […] Interstudy comparisons are however useful for showing trends and large differences. Tables 5, 6 and 7, hereinafter, provide exemplary data from such studies in which only the activity at the peak concentration is shown for each compound and the results for the controls are omitted.
# Lymphocyte cultures. The serum-containing culture medium water prepared to contain the following per 100 milliliters: 91.9 milliliters RPMI 1640 (Flow Laboratories, Inc., Rockville, Md.), 0.1 milliliters of 100×glutamine, 1.0 milliliter of 100×sodium pyruvate, 1 0 milliliter of 50×nonessential amino acids, 1.0 milliliter of water containing 10^4 units of penicillin G and 10^4 micrograms of streptomycin, and 5.0 milliliters of a supportive lot of fetal calf serum (FCS). These ingredients were admixed to apparent homogeneity. Spleen cell suspensions and populations enriched for splenic B cells were prepared as described in Goodman et al., J. Immunol., 121:1905 (1978).
# For evaluation of the primary humoral immune response to sheep erythrocytes (SRBC), 5×10^6 to 10^7 murine spleen cells were cultured in 1.0 milliliter of 5% FCS-containing medium for 4 or 5 days in the presence and absence of immunogen. Cells were incubated in culture trays (Costar, Cambridge, Mass.) at 37° C. in a humidified atmosphere of 10% CO2 in air using tissue culture boxes (CBS Scientific, Del Mar, Calif.) that were rocked at a frequency of 7 cycles per minute. Pooled SRBC are available from the Colorado Serum Co., Denver Colo.
# as §1
# CBA/N mouse spleen cells = assay: In vitro reconstitution of primary humoral immune response to SRBC, immunodeficient CBA/N spleen cells (FIG. 2); format: cell-based
# Source text: (§2) FIG. 2 is a graph that illustrates the in vitro reconstitution of the primary humoral immune response to a specific antigen, SRBC, in cultured immunodeficient CBA/N mouse spleen cells (dotted line) obtained by contacting those cells with an aqueous composition containing 7a8oGuo, in the further presence of SRBC. A similar study using spleen cells from immunocompetent CBA/CaJ mice (solid line) is also shown in the graph for comparison. The points on each line represent the PFC value obtained in the presence of the indicated amount of 7a8oGuo plus SRBC. The ordinate and abscissa are as in FIG. 1. Further details of this study are provided hereinafter.
# (§3) Cultures of spleen cells from male and female homzygous CBA/N and male mice heterozygous for the CBA/N gene, called the xid gene, (male mice bear the X chromosome) was prepared as described in the Materials and Methods Section. 0.1 Milliters of a 0.1 percent (v/v) SRBC suspension alone or the SRBC suspension plus incremental amounts of 7a8oGuo were added to the cultures, using 5×10^6 cells/ml. Direct anti-SRBC […] per culture were assessed after 4 days of culture.
# [4] = tested on: CBA/CaJ mouse spleen cells; assay: Primary humoral response to SRBC, immunocompetent CBA/CaJ spleen cells (comparison in FIG. 2); format: cell-based
# Source text: as §2, §3
# The results of this study comparing cells from CBA/N mice with a preparation of spleen cells from CBA/CaJ mice, are shown in FIG. 2.
# murine spleen cells = assay: Mitogenicity: [3H]TdR uptake, murine system; format: cell-based, mouse; conditions: Table 4
# Source text: ^1 Mitogenicity measured by the uptake of [^3 H]TdR
# (tritiumlabeled thymidine deoxyribonucleoside) as determined by measuring
# counts per minute (cpm) per cell culture using the conditions discussed i
# lymphocytes = conditions: cited from earlier work
# [5] = Table 7, second group, person a
# [6] = Table 7, second group, person b
# [7] = Table 7, second group, person c
structure (smiles),measurement,setting,value
"C=CCn1c(=O)n([C@@H]2O[C@H](CO)[C@@H](O)[C@H]2O)c2nc(N)[nH]c(=O)c21 [7a8oGuo, 7-(2-Propenyl)-8-oxoguanosine]","solubility in human urine, in words",physchem,about a three-fold greater solubility than did 7m8oGuo
same,solubility at 18 h,physchem,16.3 mg/mL
same,[3H] TdR Uptake,[1]; 10^-4 M,"10,000 ± 800 counts per minute"
same,[3H] TdR Uptake,[1]; 10^-5 M,8000 ± 300 counts per minute
same,[3H] TdR Uptake,[1]; 10^-6 M,8300 ± 300 counts per minute
same,Peak Direct anti-SRBC PFC/Culture,"[2]; Table 7, first group, person a",3038 ± 288 PFC/Culture
same,Peak Direct anti-SRBC PFC/Culture,"[2]; Table 7, first group, person b",9250 ± 1010 PFC/Culture
same,Peak Direct anti-SRBC PFC/Culture,"[2]; Table 7, first group, person c",4831 ± 270 PFC/Culture
same,Peak Direct anti-SRBC PFC/Culture,[2]; [5],477 PFC/Culture
same,Peak Direct anti-SRBC PFC/Culture,[2]; [6],"10,313 PFC/Culture"
same,Peak Direct anti-SRBC PFC/Culture,[2]; [7],4413 PFC/Culture
same,Average 1 Log Plaque Values,[2],"22,640 ± 4187 per micromole"
same,peak adjuvanticity values greater as compared to 7m8oGuo,[2]; human system (Table 3),about 100%
same,Peak Direct anti-SRBC PFC/Culture,[3],1827 PFC/Culture
same,Direct Anti-SRBC PFC/Culture,[3],1387 PFC/Culture
same,Average 1 Log Plaque Values,[3],"98,237 ± 42,041 per micromole"
same,concentration giving the similar PFC/culture values,CBA/N mouse spleen cells,30 µM
same,concentration giving the similar PFC/culture values,[4],10^-5 M
same,[3H] TdR Uptake,murine spleen cells; 3 × 10^-4 M,"59,150 ± 420 cpm/culture"
same,[3H] TdR Uptake,murine spleen cells; 10^-3 M,"51,340 ± 1050 cpm/culture"
same,[3H] TdR Uptake,murine spleen cells; 10^-4 M,"39,830 ± 780 cpm/culture"
"Cn1c(=O)n([C@@H]2O[C@H](CO)[C@@H](O)[C@H]2O)c2nc(N)[nH]c(=O)c21 [7m8oGuo, 7-methyl-8-oxoguanosine, reference compound]",solubility at 18 h,physchem,4.88 mg/mL
same,Peak Direct anti-SRBC PFC/Culture,"[2]; Table 7, first group, person a",1250 ± 125 PFC/Culture
same,Peak Direct anti-SRBC PFC/Culture,"[2]; Table 7, first group, person b",830 ± 67 PFC/Culture
same,Peak Direct anti-SRBC PFC/Culture,"[2]; Table 7, first group, person c",1225 ± 175 PFC/Culture
same,Peak Direct anti-SRBC PFC/Culture,[2]; [5],528 PFC/Culture
same,Peak Direct anti-SRBC PFC/Culture,[2]; [6],297 PFC/Culture
same,Peak Direct anti-SRBC PFC/Culture,[2]; [7],263 PFC/Culture
same,Average 1 Log Plaque Values,[2],867 ± 217 per micromole
same,Peak Direct anti-SRBC PFC/Culture,[3],723 ± 143 PFC/Culture
same,Direct Anti-SRBC PFC/Culture,[3],145 PFC/Culture
same,Average 1 Log Plaque Values,[3],"22,359 ± 5154 per micromole"
same,[3H] TdR Uptake,murine spleen cells; 3 × 10^-4 M,"39,620 ± 1160 cpm/culture"
same,[3H] TdR Uptake,murine spleen cells; 10^-3 M,"35,070 ± 1830 cpm/culture"
same,[3H] TdR Uptake,murine spleen cells; 10^-4 M,"23,640 ± 770 cpm/culture"
"Nc1nc2c(nc(Br)n2[C@@H]2O[C@@H]3COP(=O)(O)O[C@H]3[C@H]2O)c(=O)[nH]1 [8-BrcGMP, 8-Bromoguanosine-3',5'-cyclic monophosphate]","lymphocyte mitogenicity, in words",lymphocytes,weak synthetic intracellular lymphocyte mitogen
